{
  "source": "patent US20070128657A1",
  "about": "“Molecular libraries” (priority 2002, published 2007)",
  "format_in_all_cases": "cell-based, Homo sapiens (human)",
  "key": {"[1]": {"tested_on": "Saos2 cells (no p53 copy)", "test": "Cell proliferation status after ligand transfection, Saos-2", "settings": "Saos-2, without puromycin selection", "description": "(§1) The purpose of this experiment is to confirm that the selected peptide ligand indeed restores the mutated p53 protein to the wild-type p53 function in SW480.7 cells. […] There might be a chance that the cells got the resistance with, or even without the help of the selected ligand via mechanisms other than p53-transactivated p21 promoter. Thus we should make sure that the mutant p53 in SW480.7 cells functions as wild-type p53 only if the selected ligand is added. […] The selected peptide ligand can be further verified only if it can induce cell cycle arrest or apoptosis in SW480.7 cells but neither in U-2 OS nor in Saos2 cells, which means the specificity of the selected ligand to p53 mutation in SW480.7. • 2—We also tested the transcription levels of genes that are only transactivated by wild-type p53.\n(§2) Cells SW480.7, U-2OS, and Sa-os2 were transfected with peptide ligand and pCEP4 parallelly using the calcium phosphate method.\n(§3) After transfection, cells were cultured without drug selection and diluted at the ratio of 1:100 every five days. Cell proliferation status was closely observed until ligand transfected SW480.7 cells died out. Life staining with 0.4% trypan blue was applied to determine the death of the cells. Dead cells can not exclude the dye thus were stained blue. Living cells can pump the dye outside thus were not stained. […]"}, "U-2 OS (WTp53)": {"tested_on": "U-2 OS (WTp53)", "test": "Cell proliferation status after ligand transfection, U-2 OS", "settings": "U2-OS, without puromycin selection", "description": "as §1, §2, §3"}, "R273H/P309S p53 mutant": {"tested_on": "R273H/P309S p53 mutant", "test": "RT-PCR of genes transactivated by wild-type p53 in ligand transfected SW480.7 cells", "description": "as §1\nP53 (wild-type) regulates different cell responses via transactivating different downstream genes. For example p53 causes cell cycle arrest at G1 phase by transactivation of p21 gene. While p53 causes cell arrest at G2 phase by transactivation of […]. Apoptosis is due to p53 transactivation of […] and/or Bax gene. Thus we measured p21, CD95, and 14-3-3σ gene transcription levels by RT PCR, to reveal the capability of the selected peptide ligand in restoring the wild-type p53 transactivation of the downstream genes. The expression level of β-actin was measured as a control. β-Actin transcription level was used to normalize total mRNA amount between samples for comparison owing to its constitutive expression in all cells.\nAfter transfection, cells were cultured without drug selection and diluted at the ratio of 1:100 every five days. Cell proliferation status was closely observed until ligand transfected SW480.7 cells died out. Life staining with 0.4% trypan blue was applied to determine the death of the cells. Dead cells can not exclude the dye thus were stained blue. Living cells can pump the dye outside thus were not stained. Total RNA was collected from two wells of one ligand transfected SW480.7 plate and one pCEP4 transfected SW480.7 plate each day on day 0, day 1, and day 2 after transfection. Thus RNA samples were harvested as SW480.7/Ligand-0 day, SW480.7/Ligand-1 day, SW480.7/Ligand-2 day, SW480.7/pCEP4-0 day, SW480.7/pCEP4-1 day, SW480.7/pCEP4-2 day. Protocol for total RNA extraction by TRIZOL® Reagent was according to that given by Life Technology:\ncDNA Amplification by PCR\n8. Electrophoreses 5 μl of each PCR reaction alongside 0.1 μg of 1-kb DNA ladder on a 1.2% agarose/EtBr gel in 1×TBE buffer."}, "SW480.7 cells": {"tested_on": "SW480.7 cells", "test": "Cell proliferation status / death after ligand transfection, SW480.7", "settings": "SW480.7, 15 days, without puromycin selection", "description": "as §1, §2, §3"}, "[2]": {"settings": "ligand transfected SW480.7 compared with empty pCEP4 transfected SW480.7 cells"}},
  "data": [
    {"substance": "M G W C T (MGWCT; Peptide sequence translated from DNA extracted from library-transfected cells.) [ligand]", "values": [
      {"measurement": "Cell growth status after transfection of the ligand", "setting": "[1]", "result": "growing well"},
      {"measurement": "Cell growth status after transfection of the ligand", "setting": "U-2 OS (WTp53)", "result": "growing well"},
      {"measurement": "Restoration of wild type p53 function (RT-PCR analysis of mRNA)", "setting": "R273H/P309S p53 mutant; ligand transfected SW480.7 cells", "result": "can reestablish wild type p53 function"},
      {"measurement": "mRNA level of 14-3-3 gene", "setting": "R273H/P309S p53 mutant; [2]", "result": "Higher"},
      {"measurement": "mRNA level of CD95 gene", "setting": "R273H/P309S p53 mutant; [2]", "result": "Higher"},
      {"measurement": "mRNA level of p21 (WAF1/Cip1) gene", "setting": "R273H/P309S p53 mutant; [2]", "result": "Higher"},
      {"measurement": "Cell growth status after transfection of the ligand", "setting": "SW480.7 cells", "result": "could no longer attach to the wall and died"}
    ]}
  ]
}
